The assay deals with T1, human JAK2 (Homo sapiens, UniProt O60674).
T1 construct: JAK2 (a.a. 828-1132); His tag (N); made in house; host or cells: insect cells (baculovirus)
Put plainly: In vitro JAK kinase assay (HTRF, phosphorylation of biotinylated peptide). The assay is classed as biochemical. The settings on record: catalytic domain a.a. 828-1132, 30 μM ATP, 500 nM peptide, room temperature 1 hr; read-out: JAK-2 IC50. The procedure: Compounds herein were tested for inhibitory activity of JAK targets according to the following in vitro assay described in Park et al, Analytical Biochemistry 1999, 269, 94-104. The catalytic domains of human JAK1 (a.a. 837-1142), JAK2 (a.a. 828-1132) and JAK3 (a.a. 781-1124) with an N-terminal His tag were expressed using baculovirus in insect cells and purified. The catalytic activity of JAK1, JAK2 or JAK3 was assayed by measuring the phosphorylation of a biotinylated peptide. The phosphorylated peptide was detected by homogenous time resolved fluorescence (HTRF). IC50s of compounds were measured for each kinase in the reactions that contain the enzyme, ATP and 500 nM peptide in 50 mM Tris (pH 7.8) buffer with 100 mM NaCl, 5 mM DTT, and 0.1 mg/mL (0.01%) BSA. The ATP concentration in the reactions was 90 μM for JAK1, 30 μM for Jak2 and 3 μM for JAK3. Reactions were carried out at room temperature for 1 hr and then stopped with 20 μL 45 mM EDTA, 300 nM SA-APC, 6 nM Eu-Py20 in assay buffer (Perkin Elmer, Boston, Mass.). Binding to the Europium labeled antibody took place for 40 minutes and HTRF signal was measured on a Fusion plate reader (Perkin Elmer, Boston, Mass.). Certain of the above compounds were tested according to this assay.
Background: In TR-FRET formats the signal depends on donor and acceptor labels being close together.

T1 sequence (O60674 828-1132): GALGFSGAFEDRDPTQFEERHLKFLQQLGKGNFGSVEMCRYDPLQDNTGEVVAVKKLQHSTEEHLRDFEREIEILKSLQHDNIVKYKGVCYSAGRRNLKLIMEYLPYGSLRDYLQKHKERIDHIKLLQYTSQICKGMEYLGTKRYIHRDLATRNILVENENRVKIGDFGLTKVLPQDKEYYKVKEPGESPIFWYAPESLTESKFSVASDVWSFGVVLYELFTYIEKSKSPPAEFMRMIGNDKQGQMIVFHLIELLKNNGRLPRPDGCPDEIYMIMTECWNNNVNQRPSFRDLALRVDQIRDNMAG

Regarding `N#CCC(C1CCCC1)n1cc(-c2ccnc(Nc3cccc(NC(=O)CN4CCN(CCO)CC4)c3)n2)cn1` (racemic) [Example 240, N-(3-(4-(1-(2-cyano-1-cyclopentylethyl)-1H-pyrazol-4-yl)pyrimidin-2-ylamino)phenyl)-2-(4-(2-hydroxyethyl)piperazin-1-yl)acetamide], the IC50 is less than 100 nM.

`N#CCC(C1CCCC1)n1cc(-c2ccnc(Nc3cccc(C(=O)N4CCC(c5ccccc5)CC4)c3)n2)cn1` (racemic) [Example 155, 3-cyclopentyl-3-(4-(2-(3-(4-phenylpiperidine-1-carbonyl)phenylamino)pyrimidin-4-yl)-1H-pyrazol-1-yl)propanenitrile]: the IC50 is less than 100 nM.

`N#CCC(CC1CCNCC1)n1cc(-c2ccnc(Nc3ccc(N4CCOCC4=O)cc3)n2)cn1` (racemic) [Example 92, 3-(4-(2-(4-(3-oxomorpholino)phenylamino)pyrimidin-4-yl)-1H-pyrazol-1-yl)-4-(piperidin-4-yl)butanenitrile]: the IC50 is greater than 100 nM.

As to `Cc1noc(C)c1C(=O)Nc1ccc(Nc2nccc(-c3cnn(C(CC#N)C4CCCC4)c3)n2)cc1` (racemic) [Example 189, N-(4-(4-(1-(2-cyano-1-cyclopentylethyl)-1H-pyrazol-4-yl)pyrimidin-2-ylamino)phenyl)-3,5-dimethylisoxazole-4-carboxamide], the IC50 is less than 100 nM.

In the case of `N#CCC(C1CCCC1)n1cc(-c2ccnc(Nc3cccc(C(=O)N4CCC(O)(c5ccccc5)CC4)c3)n2)cn1` (racemic) [Example 150, 3-cyclopentyl-3-(4-(2-(3-(4-hydroxy-4-phenylpiperidine-1-carbonyl)phenylamino)pyrimidin-4-yl)-1H-pyrazol-1-yl)propanenitrile], the IC50 was less than 100 nM.

Turning to `Cn1ccc(S(=O)(=O)N2CCC(CC(CC#N)n3cc(-c4ccnc(Nc5ccc(N6CCOCC6)cc5)n4)cn3)CC2)n1` (racemic) [Example 55, 4-(1-(1-methyl-1H-pyrazol-3-ylsulfonyl)piperidin-4-yl)-3-(4-(2-(4-morpholinophenylamino)pyrimidin-4-yl)-1H-pyrazol-1-yl)butanenitrile], the IC50 was less than 100 nM.

On to `COc1cnc(Nc2cccc(C(=O)N3CC[C@H](OC)C3)c2)nc1-c1cnn(C(CC#N)C2CC2)c1` (mixture of isomers) [Example 326, 3-cyclopropyl-3-(4-{5-methoxy-2-[(3-{[(3S)-3-methoxypyrrolidin-1-yl]carbonyl}phenyl)amino]pyrimidin-4-yl}-1H-pyrazol-1-yl)propanenitrile], for which the IC50 is less than 100 nM.

For `N#CCC(CC1CCN(C(=O)c2ccc(F)cc2F)CC1)n1cc(-c2ccnc(Nc3ccc(-n4ccnc4)cc3)n2)cn1` (racemic) [Example 1, 3-(4-(2-(4-(1H-imidazol-1-yl)phenylamino)pyrimidin-4-yl)-1H-pyrazol-1-yl)-4-(1-(2,4-difluorobenzoyl)piperidin-4-yl)butanenitrile], the IC50 is less than 100 nM.

With `COc1cnc(Nc2ccc(C(=O)NC3CCOCC3)cc2)nc1-c1cnn(C(CC#N)C2CCCC2)c1` (racemic) [Example 305, 4-(4-(1-(2-cyano-1-cyclopentylethyl)-1H-pyrazol-4-yl)-5-methoxypyrimidin-2-ylamino)-N-(tetrahydro-2H-pyran-4-yl)benzamide], the IC50 is less than 100 nM.

`N#CCC(C1CCCC1)n1cc(-c2ccnc(Nc3cccc(NC(=O)CN4CCCC4)c3)n2)cn1` (racemic) [Example 118, N-(3-(4-(1-(2-cyano-1-cyclopentylethyl)-1H-pyrazol-4-yl)pyrimidin-2-ylamino)phenyl)-2-(pyrrolidin-1-yl)acetamide]: the IC50 was less than 100 nM.

Turning to `N#CCC1(n2cc(-c3ccnc(Nc4ccc(N5CCOCC5)cc4)n3)cn2)CCN(S(=O)(=O)C2CC2)CC1` [Example 29, 2-(1-(cyclopropylsulfonyl)-4-(4-(2-(4-morpholinophenylamino)pyrimidin-4-yl)-1H-pyrazol-1-yl)piperidin-4-yl)acetonitrile], the IC50 was less than 100 nM.

On to `N#CCC(C1CC1)n1cc(-c2ccnc(Nc3ccc(C(=O)N4C5CC6CC4CC(C5)O6)cc3)n2)cn1` (racemic) [Example 262, 3-cyclopropyl-3-(4-(2-(4-(2-oxa-6-azatricyclo[3.3.1.1(3,7)]dec-6-ylcarbonyl)phenyl)aminopyrimidin-4-yl)-1H-pyrazol-1-yl)propanenitrile], for which the IC50 was less than 100 nM.

Turning to `COc1cnc(Nc2cccc(C(=O)N3CCC(C#N)CC3)c2)nc1-c1cnn(C(CC#N)C2CC2)c1` (racemic) [Example 331, 1-[3-({4-[1-(2-cyano-1-cyclopropylethyl)-1H-pyrazol-4-yl]-5-methoxypyrimidin-2-yl}amino)benzoyl]piperidine-4-carbonitrile], the IC50 is less than 100 nM.

As for `N#CCC(C1CCCC1)n1cc(-c2ccnc(Nc3cccc(C(=O)N4CCN(c5ccc(C#N)cc5)CC4)c3)n2)cn1` (racemic) [Example 166, 4-(4-(3-(4-(1-(2-cyano-1-cyclopentylethyl)-1H-pyrazol-4-yl)pyrimidin-2-ylamino)benzoyl)piperazin-1-yl)benzonitrile], the IC50 is less than 100 nM.

For `COc1cnc(Nc2cccc(C(=O)N3CCC(O)CC3)c2)nc1-c1cnn(C(CC#N)C2CC2)c1` (racemic) [Example 329, 3-cyclopropyl-3-{4-[2-({3-[(4-hydroxypiperidin-1-yl)carbonyl]phenyl}amino)-5-methoxypyrimidin-4-yl]-1H-pyrazol-1-yl}propanenitrile], the IC50 is less than 100 nM.

For `N#CCC(C1CCCC1)n1cc(-c2ccnc(Nc3cccc(C(=O)NCCc4cccnc4)c3)n2)cn1` (racemic) [Example 161, 3-(4-(1-(2-cyano-1-cyclopentylethyl)-1H-pyrazol-4-yl)pyrimidin-2-ylamino)-N-(2-(pyridin-3-yl)ethyl)benzamide], the IC50 is less than 100 nM.

Regarding `N#CCC(CC1CCN(C(=O)c2ccc(F)cc2F)CC1)n1cc(-c2ccnc(Nc3cccc(-c4cnco4)c3)n2)cn1` (racemic) [Example 7, 4-(1-(2,4-difluorobenzoyl)piperidin-4-yl)-3-(4-(2-(3-(oxazol-5-yl)phenylamino)pyrimidin-4-yl)-1H-pyrazol-1-yl)butanenitrile], the IC50 is less than 100 nM.

With `Cc1cc(OC2CCC(CC#N)(n3cc(-c4ccnc(Nc5ccc(-n6cccn6)cc5)n4)cn3)CC2)no1` (single isomer, unassigned) [Example 246, 2-(1-(4-(2-(4-(1H-pyrazol-1-yl)phenylamino)pyrimidin-4-yl)-1H-pyrazol-1-yl)-4-(5-methylisoxazol-3-yloxy)cyclohexyl)acetonitrile], the IC50 is less than 100 nM.

For `N#CCC(C1CCCC1)n1cc(-c2ccnc(Nc3cccc(NC(=O)CN4CCC(O)CC4)c3)n2)cn1` (racemic) [Example 239, N-(3-(4-(1-(2-cyano-1-cyclopentylethyl)-1H-pyrazol-4-yl)pyrimidin-2-ylamino)phenyl)-2-(4-hydroxypiperidin-1-yl)acetamide], the IC50 is less than 100 nM.

`Cc1cnc(Nc2ccc(-n3cccn3)cc2)nc1-c1cnn(C(CC#N)CC2CCN(C(=O)c3ccc(F)cc3F)CC2)c1` (racemic) [Example 64, 3-(4-(2-(4-(1H-pyrazol-1-yl)phenylamino)-5-methylpyrimidin-4-yl)-1H-pyrazol-1-yl)-4-(1-(2,4-difluorobenzoyl)piperidin-4-yl)butanenitrile]: the IC50 was less than 100 nM.

Turning to `N#CCC1(n2cc(-c3ccnc(Nc4ccc(-n5cccn5)cc4)n3)cn2)CCN(S(=O)(=O)C2CC2)CC1` [Example 28, 2-(4-(4-(2-(4-(1H-pyrazol-1-yl)phenylamino)pyrimidin-4-yl)-1H-pyrazol-1-yl)-1-(cyclopropylsulfonyl)piperidin-4-yl)acetonitrile], the IC50 was less than 100 nM.

As for `Cc1cnc(Nc2ccc(C(N)=O)cc2)nc1-c1cnn(C(CC#N)C2CCCC2)c1` (racemic) [Example 70, 4-(4-(1-(2-cyano-1-cyclopentylethyl)-1H-pyrazol-4-yl)-5-methylpyrimidin-2-ylamino)benzamide], the IC50 is less than 100 nM.

Take `CCS(=O)(=O)N1CCC(CC(CC#N)n2cc(-c3nc(Nc4ccccc4)ncc3C)cn2)CC1` (racemic) [Example 50, 4-(1-(ethylsulfonyl)piperidin-4-yl)-3-(4-(5-methyl-2-(phenylamino)pyrimidin-4-yl)-1H-pyrazol-1-yl)butanenitrile]: the IC50 is less than 100 nM.

Turning to `Cn1ccc(Nc2nccc(-c3cnn(C(CC#N)CC4CCN(C(=O)c5ccc(F)cc5F)CC4)c3)n2)n1` (racemic) [Example 8, 4-(1-(2,4-difluorobenzoyl)piperidin-4-yl)-3-(4-(2-(1-methyl-1H-pyrazol-3-ylamino)pyrimidin-4-yl)-1H-pyrazol-1-yl)butanenitrile], the IC50 is less than 100 nM.

Regarding `CCS(=O)(=O)N1CC(CC#N)(n2cc(-c3ccnc(Nc4ccc(C(=O)N5CCN(C(C)=O)CC5)cc4)n3)cn2)C1` [Example 281, 2-(3-(4-(2-(4-(4-acetylpiperazine-1-carbonyl)phenylamino)pyrimidin-4-yl)-1H-pyrazol-1-yl)-1-(ethylsulfonyl)azetidin-3-yl)acetonitrile], the IC50 was less than 100 nM.

The term IC50 denotes the midpoint of a concentration-inhibition curve.

The record behind these values is patent US8309718B2, “4-pyrazolyl-N-arylpyrimidin-2-amines and 4-pyrazolyl-N-heteroarylpyrimidin-2-amines as janus kinase inhibitors” (Incyte Corporation, priority 2007, dated 2012).
